Source: PMC12140054, “Small glycomimetic antagonists of the cytomegalovirus glycoprotein UL141 prevent binding to TRAIL death receptor” (The Journal of Biological Chemistry, 2025)

Legend:
[1] = target: T1, UL141 W235A mutant (Human cytomegalovirus, UniProt Q6RJQ3, W235A); assay: SPR binding to UL141 alanine mutant W235A; conditions: W235A (site C), 0 to 25 μM
T1 construct: extracellular domain of HCMV UL141 (residues 30–300, Gene ID: 3077418); made in house; host or cells: Sf9 (baculovirus)
From the text: (§1) Collectively, the findings from molecular modeling, ELISA, and SPR prompted a more detailed investigation into the binding mechanisms, leading us to explore the possibility of distinct binding sites for UL141 in its interaction with glycomimetic compound 18. To further clarify this, we conducted mutational analysis on the surface residues of UL141 to identify specific binding sites involved in this interaction. The following residues were selected for alanine-scanning mutagenesis, followed by SPR analysis to assess their contribution to the binding affinity of UL141 for 18: Asp91, Glu92, Arg82, Arg80, and Asp37 (site A); Tyr148 and Arg146 (site B); and Arg85, Leu163, Glu164, Pro231, Trp235, and Asp232 (site C) (Fig. 9A). The UL141 mutants were generated through single alanine substitutions and recombinantly produced in the BV-Sf9 system following the same protocol as the WT UL141. […] The binding affinities of the remaining mutants were assessed using SPR, as illustrated in Figure 9. […] Binding interactions were monitored over a 300-s period. […]
(§2) Figure 9 Mutational analysis of UL141 binding sites for antagonist 18. […] An alternative representation of the same SPR data, showing all measured concentration points, is provided in panel (C), with the structure of compound 18 included for reference. […]

[2] = target: T2, UL141 D232A mutant (Human cytomegalovirus, UniProt Q6RJQ3, D232A); assay: SPR binding to UL141 alanine mutant D232A; conditions: D232A (site C), 0 to 25 μM
T2 construct: extracellular domain of HCMV UL141 (residues 30–300, Gene ID: 3077418); made in house; host or cells: Sf9 (baculovirus)
From the text: as §1, §2

T2 sequence (Q6RJQ3 30-300 D232A): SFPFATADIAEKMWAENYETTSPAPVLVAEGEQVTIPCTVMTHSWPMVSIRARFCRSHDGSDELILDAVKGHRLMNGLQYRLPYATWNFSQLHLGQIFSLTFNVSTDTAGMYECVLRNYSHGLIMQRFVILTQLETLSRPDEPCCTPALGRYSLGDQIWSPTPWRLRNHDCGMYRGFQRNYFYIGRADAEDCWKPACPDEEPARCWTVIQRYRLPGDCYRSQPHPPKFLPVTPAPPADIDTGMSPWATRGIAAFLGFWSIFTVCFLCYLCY
T1 sequence (Q6RJQ3 30-300 W235A): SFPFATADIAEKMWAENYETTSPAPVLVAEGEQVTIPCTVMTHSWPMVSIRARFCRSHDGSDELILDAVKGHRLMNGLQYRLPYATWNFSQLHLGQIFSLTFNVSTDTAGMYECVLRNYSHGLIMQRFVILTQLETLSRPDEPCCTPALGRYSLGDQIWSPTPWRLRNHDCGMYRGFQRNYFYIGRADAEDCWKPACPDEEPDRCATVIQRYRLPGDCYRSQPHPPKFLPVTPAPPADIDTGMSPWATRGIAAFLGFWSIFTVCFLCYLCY

SMILES: CCC1C(O)C(O)CN1Cc1ccc(I)cc1 (centres unmarked) [Compound 18]
- binding to UL141 mutant [1]: prevented binding
- binding to UL141 mutant [2]: prevented binding
